Source: patent US8557741B2, “3-aminocarbonyl-substituted benzoylcyclohexanediones and their use as herbicides” (Bayer CropScience AG, priority 2010, dated 2013)
Where two headings read alike, the source gives them in different places.

Key:
Assay type in all cases: in vivo
Echinochloa crus galli [1] = experiment: Post-emergence herbicidal action against harmful plants; settings: 504 h, dosage 80 g/ha, read-out: Herbicidal action against ECHCG
From the text: (§1) The abbreviations used in the tables below denote: • ABUTH Abutilon theophrasti • AMARE Amaranthus retroflexus • ECHCG Echinochloa crus galli • PHBPU Phartoitis purpureum • STEME Stellaria media • ALOMY Alopecurus myosuroides • AVEFA Avena fatua • MATIN Matricaria inodora • POLCO Fallopia convolvulus • VERPE Veronica persica 1. Pre-emergence Herbicidal Action Against Harmful Plants Seeds of monocotyledonous and dicotyledonous weed and crop plants are placed in sandy loam in wood-fibre pots, covered with soil and cultivated in a greenhouse under good growth conditions. 2 to 3 weeks after sowing, the test plants are treated at the one-leaf stage. The compounds according to the invention, formulated in the form of wettable powders (WP) or as emulsion concentrates (EC), are then sprayed as aqueous suspension or emulsion at a water application rate of 600 to 800 I/ha (converted) with the addition of 0.2% of wetting agent onto the green parts of the plants. After the test plants have been kept in the greenhouse under optimum growth conditions for about 3 weeks, the activity of the preparations is rated visually in comparison to untreated controls (herbicidal activity in percent (%): 100% activity=the plants have died, 0% activity=control plants, —=not tested).

Avena fatua [2] = experiment: as above; settings: dosage 80 g/ha, visual rating after about 3 weeks (Table D)
From the text: as §1

Stellaria media [3] = experiment: as above; settings: 504 h, dosage 80 g/ha, visual rating after about 3 weeks (Table D), read-out: Herbicidal action against STEME
From the text: as §1

Phartoitis purpureum [4] = experiment: as above; settings: 504 h, dosage 80 g/ha
From the text: as §1

Matricaria inodora [5] = experiment: as above; settings: Tripleurospermum inodorum, 504 h, dosage 80 g/ha, read-out: Herbicidal action against MATIN
From the text: as §1

Veronica persica [6] = experiment: as above; settings: 504 h, dosage 80 g/ha, visual rating after about 3 weeks (Table D), read-out: Herbicidal action against VERPE
From the text: as §1

Fallopia convolvulus = experiment: as above; settings: 504 h, dosage 80 g/ha, read-out: Herbicidal action against POLCO
From the text: as §1

Amaranthus retroflexus [7] = experiment: as above; settings: 504 h, dosage 80 g/ha, visual rating after about 3 weeks (Table D), read-out: Herbicidal action against AMARE
From the text: as §1

Alopecurus myosuroides = experiment: Pre-emergence herbicidal action against harmful plants; settings: dosage 320 g/ha, visual assessment after 3 weeks (Table A)
From the text: (§2) The abbreviations used in the tables below denote: • ABUTH Abutilon theophrasti • AMARE Amaranthus retroflexus • ECHCG Echinochloa crus galli • PHBPU Phartoitis purpureum • STEME Stellaria media • ALOMY Alopecurus myosuroides • AVEFA Avena fatua • MATIN Matricaria inodora • POLCO Fallopia convolvulus • VERPE Veronica persica 1. Pre-emergence Herbicidal Action Against Harmful Plants Seeds of monocotyledonous and dicotyledonous weed plants and crop plants are placed in wood-fibre pots in sandy loam and covered with soil. The compounds according to the invention and the compounds known from the prior art, formulated in the form of wettable powders (WP) or as emulsion concentrates (EC), are then applied as aqueous suspension or emulsion at a water application rate of 600 to 800 I/ha (converted) with the addition of 0.2% of wetting agent to the surface of the covering soil. After the treatment, the pots are placed in a greenhouse and kept under good growth conditions for the test plants. The visual assessment of the damage to the test plants is carried out after a trial period of 3 weeks by comparison with untreated controls (herbicidal activity in percent (%): 100% activity=the plants have died, 0% activity=like control plants, —=not tested). The results of comparative table A show the compounds according to the invention have a higher herbicidal activity than the compounds of the greatest structural similarity known from the closest prior art.

Echinochloa crus galli [8] = experiment: as above; settings: dosage 320 g/ha; for pest or weed control at 320 g/ha: Echinochloa, 504 h, read-out: Herbicidal action against ECHCG
From the text: as §2

Avena fatua [9] = experiment: as above; settings: dosage 320 g/ha, visual assessment after 3 weeks (Table A)
From the text: as §2

Stellaria media [10] = experiment: as above; settings: 504 h, dosage 320 g/ha, visual assessment after 3 weeks (Table A), read-out: Herbicidal action against STEME
From the text: as §2

Phartoitis purpureum [11] = experiment: as above; settings: dosage 320 g/ha; for Herbicidal action against PHBPU: visual assessment after 3 weeks (Table A); for Herbicidal action against PHPBU: visual assessment after 3 weeks (Table C)
From the text: as §2

Matricaria inodora [12] = experiment: as above; settings: dosage 320 g/ha; for pest or weed control at 320 g/ha: Tripleurospermum inodorum, 504 h, read-out: Herbicidal action against MATIN
From the text: as §2

Veronica persica [13] = experiment: as above; settings: 504 h, dosage 320 g/ha, visual assessment after 3 weeks (Table A), read-out: Herbicidal action against VERPE
From the text: as §2

Amaranthus retroflexus [14] = experiment: as above; settings: 504 h, dosage 320 g/ha, read-out: Herbicidal action against AMARE
From the text: as §2

Abutilon theophrasti = experiment: as above; settings: dosage 320 g/ha; for pest or weed control at 320 g/ha: Abutilon theophrasti, 504 h, read-out: Herbicidal action against ABUTH
From the text: as §2

VIOTR [15] = experiment: Post-emergence herbicidal action against harmful plants; settings: dosage 80 g/ha, visual rating after about 3 weeks (Table E)
Method: as §1, with “Seeds” for “The abbreviations used in the tables below denote: • ABUTH Abutilon theophrasti • AMARE Amaranthus retroflexus • ECHCG Echinochloa crus galli • PHBPU Phartoitis purpureum • STEME Stellaria media • ALOMY Alopecurus myosuroides • AVEFA Avena fatua • MATIN Matricaria inodora • POLCO Fallopia convolvulus • VERPE Veronica persica 1. Pre-emergence Herbicidal Action Against Harmful Plants Seeds”

VIOTR [16] = experiment: Pre-emergence herbicidal action against harmful plants; settings: dosage 320 g/ha, visual assessment after 3 weeks (Table C)
From the text: as §2, with “Seeds” for “The abbreviations used in the tables below denote: • ABUTH Abutilon theophrasti • AMARE Amaranthus retroflexus • ECHCG Echinochloa crus galli • PHBPU Phartoitis purpureum • STEME Stellaria media • ALOMY Alopecurus myosuroides • AVEFA Avena fatua • MATIN Matricaria inodora • POLCO Fallopia convolvulus • VERPE Veronica persica 1. Pre-emergence Herbicidal Action Against Harmful Plants Seeds”

SETVI = experiment: as above; settings: dosage 320 g/ha, visual assessment after 3 weeks (Table C)
From the text: as §2, with “Seeds” for “The abbreviations used in the tables below denote: • ABUTH Abutilon theophrasti • AMARE Amaranthus retroflexus • ECHCG Echinochloa crus galli • PHBPU Phartoitis purpureum • STEME Stellaria media • ALOMY Alopecurus myosuroides • AVEFA Avena fatua • MATIN Matricaria inodora • POLCO Fallopia convolvulus • VERPE Veronica persica 1. Pre-emergence Herbicidal Action Against Harmful Plants Seeds”

[17] = visual rating after about 3 weeks (Table D)
[18] = visual rating after about 3 weeks (Table D), read-out: Herbicidal action against PHBPU
[19] = visual assessment after 3 weeks (Table A)
[20] = visual rating after about 3 weeks (Table E)
[21] = visual rating after about 3 weeks (Table E), read-out: Herbicidal action against PHPBU
[22] = visual assessment after 3 weeks (Table C)

Structure (SMILES) | pest or weed control at 80 g/ha (Echinochloa crus galli [1]; [17]) | Herbicidal action against AVEFA (Avena fatua [2]) | pest or weed control at 80 g/ha (Stellaria media [3]) | pest or weed control at 80 g/ha (Phartoitis purpureum [4]; [18]) | pest or weed control at 80 g/ha (Matricaria inodora [5]; [17]) | pest or weed control at 80 g/ha (Veronica persica [6]) | pest or weed control at 80 g/ha (Fallopia convolvulus; [17]) | pest or weed control at 80 g/ha (Amaranthus retroflexus [7]) | Herbicidal action against ALOMY (Alopecurus myosuroides) | pest or weed control at 320 g/ha (Echinochloa crus galli [8]; [19]) | Herbicidal action against AVEFA (Avena fatua [9]) | pest or weed control at 320 g/ha (Stellaria media [10]) | Herbicidal action against PHBPU (Phartoitis purpureum [11]) | pest or weed control at 320 g/ha (Matricaria inodora [12]; [19]) | pest or weed control at 320 g/ha (Veronica persica [13]) | pest or weed control at 320 g/ha (Amaranthus retroflexus [14]; [19]) | pest or weed control at 320 g/ha (Abutilon theophrasti; [19]) | pest or weed control at 80 g/ha (Echinochloa crus galli [1]; [20]) | pest or weed control at 80 g/ha (Phartoitis purpureum [4]; [21]) | pest or weed control at 80 g/ha (Matricaria inodora [5]; [20]) | other results
CN(C)C(=O)COc1c(Cl)ccc(C(=O)C2=C(O)CCCC2=O)c1C(F)(F)F [Compound E1] | 90% | 80% | 90% | 90% | 100% | 90% | 100% | 80% | 100% | 100% | 90% | 90% | 80% | 100% | 100% | 100% | 100% |  |  |  | 
CCS(=O)(=O)c1ccc(C(=O)C2=C(O)CCCC2=O)c(C(F)(F)F)c1OCC(=O)N(C)OC [Compound E8] |  |  |  |  |  |  |  |  |  | 100% |  | 100% |  | 100% | 100% |  | 100% | 90% | 80% | 90% | pest or weed control at 80 g/ha (Fallopia convolvulus; [20]): 90%; Herbicidal action against ECHCG (Echinochloa crus galli [8]; [22]): 100%; Herbicidal action against PHPBU (Phartoitis purpureum [11]): 90%; Herbicidal action against MATIN (Matricaria inodora [12]; [22]): 100%; pest or weed control at 320 g/ha (Amaranthus retroflexus [14]; [22]): 100%; Herbicidal action against ABUTH (Abutilon theophrasti; [22]): 100%; Herbicidal action against VIOTR (VIOTR [15]): 90%; Herbicidal action against VIOTR (VIOTR [16]): 100%; Herbicidal action against SETVI (SETVI): 90%
CN(C)C(=O)COc1c(Cl)ccc(C(=O)C2=C(O)CCCC2=O)c1Cl [Compound S1, reference compound] | 50% | 50% | 70% | 70% | 100% | 70% | 60% | 80% | 40% | 30% | 20% | 80% | 40% | 100% | 70% | 60% | 90% |  |  |  | 
CCS(=O)(=O)c1ccc(C(=O)C2=C(O)CCCC2=O)c(Cl)c1OCC(=O)N(C)OC [Compound S8, reference compound] |  |  |  |  |  |  |  |  |  |  |  |  |  |  |  |  |  | 80% | 80% | 60% | pest or weed control at 80 g/ha (Fallopia convolvulus; [20]): 80%; pest or weed control at 320 g/ha (Echinochloa crus galli [8]; [22]): 60%; Herbicidal action against PHPBU (Phartoitis purpureum [11]): 70%; pest or weed control at 320 g/ha (Matricaria inodora [12]; [22]): 90%; pest or weed control at 320 g/ha (Amaranthus retroflexus [14]; [22]): 90%; pest or weed control at 320 g/ha (Abutilon theophrasti; [22]): 90%; Herbicidal action against VIOTR (VIOTR [15]): 80%; Herbicidal action against VIOTR (VIOTR [16]): 20%; Herbicidal action against SETVI (SETVI): 50%
